From publication PMC9804055, “Kinase inhibit region of SOCS3 attenuates IL6‐induced proliferation and astrocytic differentiation of neural stem cells via cross talk between signaling pathways” (CNS Neuroscience & Therapeutics, 2022)

What was measured:
Format in all cases: cell-based, SD rats
[1] = system: NSCs; experiment: Ki67 immunocytochemistry, NSC proliferation; details: 3 days, mean ± SD
Experimental: (§1) NSCs survival and growth were analyzed by using cell counting kit‐8 (#CK04, Dojindo, CCK‐8). NSCs were randomly allocated in the Control, TAT‐scramble, TAT‐KIR, IL‐6, and TAT‐KIR+IL6 groups. All NSCs seeded into 96‐well plates at 5 × 10^4 cells/ml and cultured in growth medium for 24 h. IL‐6 in the concentration of 100 ng/ml was applied to mimic inflammatory condition. Thirty minutes later, TAT‐KIR or TAT‐scramble was added into the culture system. Cell viability of each group was observed by Universal Microplate Spectrophotometer (QuantTM, BioTek) at first, third, and fifth day after peptide administration (Figure 3A). Optical density (OD) values at 450 nm were measured. Immunocytochemistry staining with ki67 (#ab16667, Abcam, 1:300) was used to assess NSC proliferation. Cell cycles were analyzed by FACS at third day after peptide administration. The rates of cells in G0/G1, S, and G2/M were measured, and the proliferation index (PI) {PI = (S + G2/M)/([…] + S + G2/M) × 100%} was calculated, respectively. In each independent experiment, the procedures were carried out in triplicate.

[2] = system: NSCs; experiment: NSCs differentiation, immunostaining of GFAP and β tubulin III positive cells; details: 7 DIV, mean ± SD, n = 9
Experimental: NSCs at 1 × 10^5 cells/ml were seeded into 24‐well plates allocated randomly in Control, TAT‐KIR, IL‐6, and TAT‐KIR+IL6 groups. After 24 h culture with differentiation media, IL‐6 and TAT‐KIR were added into the medium as above order and reapplied every other day (Figure 4A). Cells were harvested at 7 DIV. Immunocytochemical staining was performed with different antibodies, including GFAP and β Tublin III. […] Then the numbers of GFAP positive and β Tubulin III positive cells were counted, and the percentages of differentiated cells were calculated by using Image J (version 1.61).

[3] = system: p‐ERK1/2; experiment: Western blotting, p-ERK1/2 / ERK1/2; details: mean ± SD, n = 3
Experimental: (§2) NSCs at 1 × 10^6 cells/ml in 6‐well plate were treated with IL‐6 and TAT‐KIR as above. Cells were harvested at 3 h, 6 h, 12 h, 24 h, or 7 days after treatment. Cells were suspended in lysis buffer containing 150 μl RIPA (#89900, Pierce) protease and phosphatase inhibitor cocktail (#4693159001 and 04906845001, Roche). Cell lysates were incubated on ice for 20 min and centrifuged at 12,000 rpm for 15 min at 4°C. The proteins in supernatant were separated by electrophoresis with 10%–12% sodium dodecyl sulfate polyacrylamide gel (SDS‐PAGE) and then transferred onto 0.22 μm polyvinylidene difluoride membranes (PVDF; #IPVH00010, Millipore). The membranes were blocked in 5% BSA dissolved in Tris‐buffered saline containing 0.1% Tween‐20 for 2 h at room temperature and then were incubated overnight at 4°C with primary antibodies, including GFAP (#ab7260, Abcam, 1:1000), β Tublin III (#MAB1637, Millipore, 1:1000), and STAT3, p‐STAT3, P38, p‐P38, ERK1/2, p‐ERK1/2, AKT, p‐AKT, JNK2, p‐JNK2(#4904, 9145, 8690, 4511, 4695, 9101, 4685, 4060, 9258, 4668, Cell Signaling, all in 1:1000) and β‐actin (#A01263, Boster Biological Technology, 1:20,000). After washing, the membranes were incubated with the secondary antibodies (HRP conjugated anti‐rabbit or anti‐mouse IgG) for 2 h at room temperature. […] All data were analyzed with Image J (version 1.61).

[4] = system: GFAP; experiment: Western blotting, GFAP expression; details: mean ± SD, n = 3
Experimental: as §2

[5] = system: β tubulin III; experiment: Western blotting, β tubulin III expression; details: mean ± SD, n = 3
Experimental: as §2

[6] = system: p‐JNK2; experiment: Western blotting, p-JNK2/JNK2; details: mean ± SD, n = 3
Experimental: (§3) NSCs at 1 × 10^6 cells/ml in 6‐well plate were treated with IL‐6 and TAT‐KIR as above. Cells were harvested at 3 h, 6 h, 12 h, 24 h, or 7 days after treatment. Cells were suspended in lysis buffer containing 150 μl RIPA (#89900, Pierce) protease and phosphatase inhibitor cocktail (#4693159001 and 04906845001, Roche). Cell lysates were incubated on ice for 20 min and centrifuged at 12,000 rpm for 15 min at 4°C. The proteins in supernatant were separated by electrophoresis with 10%–12% sodium dodecyl sulfate polyacrylamide gel (SDS‐PAGE) and then transferred onto 0.22 μm polyvinylidene difluoride membranes (PVDF; #IPVH00010, Millipore). The membranes were blocked in 5% BSA dissolved in Tris‐buffered saline containing 0.1% Tween‐20 for 2 h at room temperature and then were incubated overnight at 4°C with primary antibodies, including GFAP (#ab7260, Abcam, 1:1000), β Tublin III (#MAB1637, Millipore, 1:1000), and STAT3, p‐STAT3, P38, p‐P38, ERK1/2, p‐ERK1/2, AKT, p‐AKT, JNK2, p‐JNK2(#4904, 9145, 8690, 4511, 4695, 9101, 4685, 4060, 9258, 4668, Cell Signaling, all in 1:1000) and β‐actin (#A01263, Boster Biological Technology, 1:20,000). After washing, the membranes were incubated with the secondary antibodies (HRP conjugated anti‐rabbit or anti‐mouse IgG) for 2 h at room temperature. The membranes were visualized by an enhanced chemiluminescence (ECL) kit. All data were analyzed with Image J (version 1.61).

[7] = system: p‐AKT; experiment: Western blotting, p-AKT/AKT; details: for rate of p-AKT to AKT: mean ± SD, n = 3
Experimental: as §3

[8] = system: NSCs; experiment: Cell cycle analysis by FACS, proliferation index; details: third day, mean ± SD, n = 3
Experimental: as §1

[9] = system: p‐STAT3; experiment: Western blotting, p-STAT3/STAT3; details: for rate of p-STAT3 to STAT3: differentiation medium, 7 days, mean ± SD, n = 3
Experimental: as §3

[10] = substance alone, growth medium, IL-6 100 ng/ml, TAT-KIR 3 μM, n = 9 figures from three experiments
[11] = TAT-KIR together with IL-6 100 ng/ml
[12] = substance alone, differentiation medium
[13] = TAT-KIR together with IL-6, 7 days differentiation
[14] = substance alone, 3 h after treatment
[15] = substance alone, 7 days differentiation
[16] = TAT-KIR together with IL-6, treatment for 3 h
[17] = substance alone, PI = (S + G2/M)/(all phases) × 100%

RKKRRQRRR‐LR‐LKTFSSKSEYQL‐V [TAT‐KIR]
percentage of Ki67 positive proliferating cells (Ki67/DAPI) ([1]; TAT-KIR 3 μM applied together with IL-6 100 ng/ml, n = 9): 41.33 ± 7.72% | percentage of Ki67 positive proliferating cells (Ki67/DAPI) [1, 10]: 20.67 ± 3.74% | percentage of GFAP positive cells (astrocytic differentiation) [2, 11]: 36.78 ± 6.81% | percentage of β tubulin III positive cells (neuronal differentiation) [2, 11]: 30.33 ± 4.39% | percentage of GFAP positive cells (astrocytic differentiation) [2, 12]: 30.67 ± 4.66% | percentage of β tubulin III positive cells (neuronal differentiation) [2, 12]: 26.78 ± 4.79% | rate of p-ERK1/2 to ERK1/2 [3, 13]: 0.68 ± 0.041 | GFAP expression (Western blotting) [4, 13]: 0.88 ± 0.091 | β tubulin III expression (Western blotting) [5, 13]: 1.21 ± 0.025 | rate of p-JNK2 to JNK2 [6, 13]: 0.63 ± 0.042 | p-JNK/JNK [6, 14]: 0.30 ± 0.040 | p-JNK/JNK ([6]; substance alone, 12 h after treatment): 0.50 ± 0.090 | rate of p-JNK2 to JNK2 [6, 15]: increased trend | rate of p-AKT to AKT [7, 13]: 0.87 ± 0.037 | p-AKT expression of IL-6-induced NSCs [7, 16]: dramatically reduced | percentage of cells in G0/G1 phase [8, 11]: 73.18 ± 3.04% | percentage of cells in S phase [8, 11]: 19.31 ± 3.32% | proliferation index (PI) [8, 11]: 26.82 ± 3.04% | proliferation index (PI) [8, 17]: 14.34 ± 1.98% | percentage of cells in G0/G1 phase ([8]; substance alone): 85.66 ± 1.98% | percentage of cells in S phase ([8]; substance alone): 9.56 ± 0.22% | rate of p-STAT3 to STAT3 [9, 11]: 0.61 ± 0.025 | p-STAT3 expression of IL-6-induced NSCs [9, 16]: dramatically reduced | rate of p-STAT3 to STAT3 ([9]; substance alone): did not affect

IL‐6: inflammatory cytokine, 100 ng/ml applied to mimic inflammatory condition [reference compound]
percentage of Ki67 positive proliferating cells (Ki67/DAPI) [1, 10]: 54.33 ± 10.29% | percentage of GFAP positive cells (astrocytic differentiation) [2, 12]: 45.72 ± 7.50% | percentage of β tubulin III positive cells (neuronal differentiation) [2, 12]: 32.33 ± 5.68% | rate of p-ERK1/2 to ERK1/2 [3, 15]: 0.75 ± 0.070 | GFAP expression (Western blotting) [4, 15]: 1.30 ± 0.127 | β tubulin III expression (Western blotting) [5, 15]: 1.22 ± 0.044 | p-JNK/JNK [6, 14]: 0.54 ± 0.056 | p-JNK/JNK ([6]; substance alone, 6 h after treatment): 0.67 ± 0.062 | rate of p-JNK2 to JNK2 [6, 15]: 0.63 ± 0.049 | rate of p-AKT to AKT [7, 15]: 1.05 ± 0.081 | proliferation index (PI) [8, 17]: 34.61 ± 4.12% | percentage of cells in G0/G1 phase ([8]; substance alone): 65.39 ± 4.12% | percentage of cells in S phase ([8]; substance alone): 28.14 ± 2.79% | rate of p-STAT3 to STAT3 ([9]; substance alone): 0.88 ± 0.093
